From patent US8703970B2, “Compounds having photochemically removable protecting groups based on an electrocyclic reaction between a chromophore attached via an anilide group to a benzothiophene ring” (Marquette University, priority 2012, dated 2014)
Where two headings read alike, the source gives them in different places.

Tests used:
Format in all cases: physicochemical
[1] = Product quantum yield determination for photochemical leaving group expulsion at 390 nm
Protocol: (§1) For the ester ε=5600 M^−1 cm^−1, while the acid has ε=4200 M^−1 cm^−1. For preparative photolyses Pyrex-filtered light from a Hanovia medium pressure mercury lamp was used. A sunlamp was also effective at photolysing all of the compounds in the study. Quantum yields were determined at 390 nm using a monochromator for wavelength selection utilizing a high pressure mercury lamp as the light source.
A semi-micro optical bench was used for quantum yield determinations, similar to the apparatus described by Zimmerman.^32 Light from a 200 W high-pressure mercury lamp was passed through an Oriel monochromator, which was set to 390 nm wavelengths. The light was collimated through a lens. A fraction of the light was diverted 90° by a beam splitter to a 10×3.6 cm side quartz cylindrical cell containing an actinometer. The photolysate was contained in a 10×1.8 cm quartz cylindrical cell of 25 mL volume. The concentrations of the reactants were 0.0018-0.0030 M. All quantum yields reported herein were the average of two or more independent runs. Behind the photolysate was mounted a quartz cylindrical cell containing 25 mL of actinometer. Light output was monitored by ferrioxalate actinometery using the splitting ratio technique.
For 7 (LG^−=Cl^−), 8 (LG^−=Cl^−), and 10 (LG^−=Cl^−) 50 mL of water was added to the photolysate, and the diluted photolysate was extracted four times with 30 mL of CH2Cl2. The combined extracts were washed twice with 30 mL water, brine, and concentrated in vacuo. The residue was dissolved in d6-DMSO. DMF was added as a standard for NMR analyses (vide infra). However, for 7 (LG^−=Cl^−) the NMR solvent was CDCl3 and the NMR standard was DMSO.
For 9 (LG^−=Cl^−, PhS^−, HS^−, PhCH2S^−) the photolysate was adjusted to pH 2 by addition of 3 N HCl. The resultant precipitate was collected by suction filtration and washed with 50 mL water. The precipitate was transferred to a flask, and any untransferred precipitate was dissolved in DMSO and combined with the transferred precipitate. The DMSO was evaporated to dryness under vacuum and DMSO-d6 was added along with DMF as a standard for NMR analysis.
Products were analyzed by ^1H NMR spectroscopy using DMF or DMSO as the internal standard and conversions were 12-16%. At the concentrations used most of the incident light would have been absorbed near the front face of the photolysis cell, raising the concern that the photoproducts formed during the photolyses could competitively absorb the incident light, reducing the light absorbed by the reactants. This internal filter effect would depress the observed Φ values below the actual values. In the case of 8 (LG^−=Cl^−) the Φ was thus redetermined at an 18-fold lower concentration of 1.0×10^−4 M of reactant and found to be within experimental error of the value obtained at higher concentration at 14% conversions for duplicate runs. Due to the very low concentrations of the photoproduct 26 formed, it had to be quantified by absorption spectroscopy of the exposed photolysates without any workup. The product absorption at 432 nm was deconvoluted from the tailing absorption of reactant using Origin 8.6 software (OriginLab). After deconvolution, concentrations were obtained from a calibration curve constructed from known mixtures of reactant and product.

Absorption spectra = conditions: aqueous dioxane or acetonitrile
Protocol: as §1
(§2) Photoproduct 26 was identified by ^1H NMR spectroscopy and elemental analysis. […] Regioisomer 28 would have shown only four vicinal couplings in the COSY spectrum. […] The compound was obtainable only as a powder, despite repeated attempts to obtain crystals for structure determination using X-ray diffraction.

[2] = Preparative photolysis with Pyrex-filtered Hanovia medium pressure mercury lamp, products quantified by NMR; conditions: N2 saturated aqueous 100 mM phosphate buffer (pH 7) in CH3CN; NMR integration
Protocol: as §1
(§3) Similarly, preparative photolysis of […] acid 9 (LG^−=Cl^−) in N2 saturated 75% H2O in CH3CN containing 100 mM phosphate buffer (pH 7) gave the single regioisomeric photoproduct 27 in 98% yield by NMR integration, as above for 8 (LG^−=Cl^−). The regiospecificity was again established by 600 MHz ^1H NMR COSY. […] Photolysis of acid 9 (LG^−=PhS^−, HS^−, PhCH2S^−) under the same conditions as 8 (LG^−=Cl^−) also gave photoproduct 27 in 98-100% yields upon expulsion of these thiolate leaving groups. For acid 9 (LG^−=PhCH2S^−) the released benzyl thiol was quantified in photolyses of 4.5×10^−3 M solutions of 35% D2O in CD3CN containing phosphate buffer (as above) contained in NMR tubes. Yields were 96% thiol and 99% of 27 at 100% conversion of reactant by ^1H NMR spectroscopy. Very similar results were found when DMSO-d6 was the photolysis solvent.
The regiospecific formation of 26 or 27 in the preparative photolyses of ester 8 or acids 9 requires the presence of the ester and carboxylic acid substituents attached to the C-6 position of the benzothiophene ring system of the reactants. In contrast, photolyses of the unsubstituted benzothiophene ring system 7 (LG^−=Cl^−) in 16% water containing 100 mM phosphate buffer in CH3CN gave both regioisomeric photoproducts 30 and 31 as a 42:58 mixture, respectively, in 100% yield according to 400 MHz ^1H NMR spectroscopy (Scheme 6).
To determine whether a “heavy atom effect” promoted intersystem crossing of the singlet excited state to the triplet excited state, work focused upon the C-7 bromide of thioxanthone ester 10 (LG^−=Cl^−). Preparative photolysis of ester 10 in N2 saturated 19% H2O in CH3CN containing 100 mM phosphate buffer (pH 7), as above for ester 8 (LG^−=Cl^−), exclusively gave regioisomer 32 in 99% yield, and 33 was not observed by ^1H NMR spectroscopy of the photolysate (Scheme 7).
A 0.010 M solution of 8 (LG^−=Cl^−) in N2 saturated 17% H2O in CH3CN containing 100 mM phosphate buffer at pH 7 was irradiated with a 450 W Hanovia medium pressure mercury lamp with a Pyrex filter for 90 min. The photoproduct was isolated by filtration. The photoproduct was washed with H2O and a small amount of CHCl3 and dried under vacuum. The product was a yellow powder, mp >300° C. […] A COSY spectrum in d6-DMSO was obtained (see Supporting Information).
A 0.010 M solution of 13 (LG^−=Cl^−) in N2 saturated 75% H2O in CH3CN containing 100 mM phosphate buffer at pH 7 was irradiated with a 450 W Hanovia medium pressure mercury lamp with Pyrex filter for 90 min. The photolysate was acidified to pH 2 with conc. HCl to precipitate the photoproduct carboxylic acid 27. The photoproduct was obtained by filtration, washing with H2O, and drying under vacuum, as a yellow powder, mp >300° C.
A 0.010 M solution of 7 (LG^−=Cl^−) in N2 saturated 17% H2O in CH3CN containing 100 mM phosphate buffer at pH 7 was irradiated with a 450 W Hanovia medium pressure mercury lamp with a Pyrex filter for 90 min. The photoproduct was isolated by filtration as a mixture of two isomers, 30, 31. The mixture of product isomers was dissolved in hot DMSO. Solid photoproduct isomer 31 was obtained upon cooling of the hot DMSO and filtration. Photoproduct isomer 31 was washed with water and methanol and dried under vacuum to obtain 31 as floppy powder, mp >300° C. Solid photoproduct isomer 30 was obtained upon addition of water to the above DMSO filtrate by filtration, after washing with water and methanol. The photoproduct isomer 30 was crystallized from CHCl3 to give a yellow crystalline solid, mp 271-273° C. […]

[3] = Photolysis with 120 W sunlamp for 72 h; conditions: gives exclusively product 26 or 27
Protocol: The photolyses of ester 8 (LG^−=Cl^−) and acids 9 (LG^−=Cl^−, PhS^−, HS^−, PhCH2S) were repeated with a 120 W sunlamp for 72 h under otherwise the same conditions described above for the Hanovia runs.

[4] = Stern-Volmer quenching of the photoreaction by piperylene
Excerpt: In air-saturated solution quantum yields for ester 8 (LG^−=Cl^−) decreased to Φ=0.019. […] Furthermore, quenching by 9.2-37×10^−[…] piperylene as quencher Q gave a slope kqτ=7.03×10^4 M^−1 for a Stern-Volmer plot Φ°/Φ vs. [Q](data not shown). If it is assumed that kq=ca. 10^10 M^−1 s^−1, then τ would be ca. 7 μs.

[5] = Solubility observations on photoproducts
Protocol: as §2, §3
A 0.010 M solution of 8 (LG^−=Cl^−) in N2 saturated 17% H2O in CH3CN containing 100 mM phosphate buffer at pH 7 was irradiated with a 450 W Hanovia medium pressure mercury lamp with a Pyrex filter for 90 min. […]

SMILES: COC(=O)c1ccc2c(Cl)c(C(=O)N(C)c3ccc4sc5ccccc5c(=O)c4c3)sc2c1 [8 (LG^−=Cl^−), 3-chloro-2-[methyl-(9-oxo-9H-thiozanthen-2-yl)-carbamoyl]-benzo[b]thiophene-6-carboxylic acid methyl ester]
- product quantum yield Φ ([1]; 390 nm, N2 saturated 19% H2O in dioxane containing 100 mM buffer (1.8×10^−3 M for 8; similar conditions for 7), products quantified by NMR): 0.039
- quantum yield Φ for photoproduct 26 ([1]; 390 nm, reactant concentration 1.0×10^−4 M, photoproduct quantified by absorption spectroscopy): 0.037
- quantum yield Φ ([1]; air-saturated solution): 0.019
- quantum yields for reaction (photorelease of leaving group), overall ([1]; depending on LG^− basicity or reactant concentration): 0.037-0.039
- ε at absorption maximum (Absorption spectra; 385 nm): 5600 M⁻¹ cm⁻¹
- absorption maximum (Absorption spectra): 385 nm
- chemical yield of leaving group expulsion / photoproduct formation in preparative photolysis [2]: nearly quantitative
- leaving group expulsion with sunlamp [3]: essentially quantitatively
- Stern-Volmer slope kqτ ([4]; 9.2-37×10^−6 M piperylene as quencher, plot Φ°/Φ vs. [Q]): 70300 M⁻¹
- triplet excited state lifetime τ ([4]; assuming kq=ca. 10^10 M^−1 s^−1): ca. 7 μs

SMILES: Cn1c(=O)c2sc3ccccc3c2c2cc3sc4ccccc4c(=O)c3cc21 [compound 31]
- solubility ([5]; in DMSO-d6, 13C-NMR could not be obtained): low solubility

SMILES: COC(=O)c1ccc2c(c1)sc1c(=O)n(C)c3cc4c(=O)c5cc(Br)ccc5sc4cc3c12 [compound 32, 6-methylcarboxylate-[1]benzothiopheno[2,3-c]benzo[a]anthracene-10-bromo-4-methyl-4H-7-thia-4-aza-3,12-dione]
- solubility [5]: low solubility
